The values that follow come from patent US9206184B2, “Disubstituted benzothienyl-pyrrolotriazines and uses thereof” (BAYER INTELLECTUAL PROPERTY GmbH, priority 2011, dated 2015).

Counter-ions that a name gives are not always drawn.

One assay deals with human FGFR-1 (Homo sapiens, UniProt P11362). Kind of assay: FGFR-1 high ATP kinase assay (TR-FRET). Particulars: 2 mM ATP; 15 min pre-incubation with enzyme; compounds of the invention. The format is biochemical.
human FGFR-1, sequence (P11362 22-822 limits assumed): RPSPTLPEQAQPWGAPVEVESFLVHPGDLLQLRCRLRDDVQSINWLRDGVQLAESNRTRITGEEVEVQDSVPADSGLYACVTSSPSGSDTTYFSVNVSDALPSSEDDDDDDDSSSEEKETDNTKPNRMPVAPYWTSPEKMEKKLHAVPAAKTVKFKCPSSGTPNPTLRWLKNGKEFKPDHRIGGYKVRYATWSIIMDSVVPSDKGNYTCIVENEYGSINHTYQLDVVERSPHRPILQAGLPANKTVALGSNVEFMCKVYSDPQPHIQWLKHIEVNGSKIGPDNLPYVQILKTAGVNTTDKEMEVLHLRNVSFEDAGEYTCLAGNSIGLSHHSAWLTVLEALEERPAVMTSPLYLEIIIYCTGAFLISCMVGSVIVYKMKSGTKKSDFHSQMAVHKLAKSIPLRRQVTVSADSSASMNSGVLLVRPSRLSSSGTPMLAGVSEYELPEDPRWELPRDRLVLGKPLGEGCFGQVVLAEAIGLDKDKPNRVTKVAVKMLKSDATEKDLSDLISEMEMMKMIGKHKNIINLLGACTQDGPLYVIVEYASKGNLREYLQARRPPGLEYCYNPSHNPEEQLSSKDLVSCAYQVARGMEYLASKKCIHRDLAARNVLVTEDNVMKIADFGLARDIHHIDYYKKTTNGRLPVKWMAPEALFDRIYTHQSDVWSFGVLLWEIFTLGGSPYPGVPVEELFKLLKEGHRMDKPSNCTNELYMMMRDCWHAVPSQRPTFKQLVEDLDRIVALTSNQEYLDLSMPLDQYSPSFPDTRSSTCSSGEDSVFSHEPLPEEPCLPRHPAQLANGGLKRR
The compound `COc1cc(C)cc2cc(-c3c(COC(C)C)c(CN4CCNCC4)n4ncnc(N)c34)sc12` [Example 27, 6-(Isopropoxymethyl)-5-(7-methoxy-5-methyl-1-benzothiophen-2-yl)-7-(piperazin-1-ylmethyl)pyrrolo[2,1-f][1,2,4]triazin-4-amine formiate] had an IC50 of 1.3 nM.

The compound `CCOCc1c(-c2cc3cc(C)cc(OC)c3s2)c2c(N)ncnn2c1CN1CCC(O)C1` (stereo not drawn) [Example 101] yielded an IC50 of 30.8 nM.

`COc1cc(C)cc2cc(-c3c(CO)c(CN4CCNCC4)n4ncnc(N)c34)sc12` [Example 12, [4-Amino-5-(7-methoxy-5-methyl-1-benzothiophen-2-yl)-7-(piperazin-1-ylmethyl)pyrrolo[2,1-f]-[1,2,4]triazin-6-yl]methanol bis(formiate)] displayed an IC50 of 3.3 nM.

As to `CCOCc1c(-c2cc3cc(C)cc(OC)c3s2)c2c(N)ncnn2c1CN1CCCCO1` [Example 94], the IC50 came to 81.9 nM.

`COC(=O)COCc1c(-c2cc3cc(C)cc(OC)c3s2)c2c(N)ncnn2c1CN1CCNCC1` [Example 31, Methyl{[4-amino-5-(7-methoxy-5-methyl-1-benzothiophen-2-yl)-7-(piperazin-1-ylmethyl)pyrrolo[2,1-f][1,2,4]triazin-6-yl]methoxy}acetate] displayed an IC50 of 1.5 nM.

Turning to `CCCOCc1c(-c2cc3cc(C)cc(OC)c3s2)c2c(N)ncnn2c1CN1CCNCC1` [Example 24, 5-(7-Methoxy-5-methyl-1-benzothiophen-2-yl)-7-(piperazin-1-ylmethyl)-6-(propoxymethyl)pyrrolo[2,1-f][1,2,4]triazin-4-amine bis(formiate)], 1.3 nM corresponded to half-maximal inhibition (IC50).

In turn, `CCOCc1c(-c2cc3cc(C)cc(OC)c3s2)c2c(N)ncnn2c1CN1CC(O)C1` [Example 97] returned an IC50 of 16.4 nM.

As to `CCOCc1c(-c2cc3cc(C)cc(OC)c3s2)c2c(N)ncnn2c1C(=O)N[C@H]1CCNC1=O` [Example 116], 3.7 nM corresponded to half-maximal inhibition (IC50).

Compound `CCOCc1c(-c2cc3cc(C)cc(OC)c3s2)c2c(N)ncnn2c1CN1CCCC1` [Example 96] returned an IC50 of 54.5 nM.

`CCOCc1c(-c2cc3cc(C)cc(OC)c3s2)c2c(N)ncnn2c1C(N)=O` [Example 109] had an IC50 of 8.4 nM.

For `CCN(CC)Cc1c(-c2cc3cc(C)cc(OC)c3s2)c2c(N)ncnn2c1CN1CCNCC1` [Example 43, 6-[(Diethylamino)methyl]-5-(7-methoxy-5-methyl-1-benzothiophen-2-yl)-7-(piperazin-1-ylmethyl)pyrrolo[2,1-f][1,2,4]triazin-4-amine trihydrochloride], the IC50 came out at 8.6 nM.

Regarding `CCOCc1c(-c2cc3cc(C)cc(OC)c3s2)c2c(N)ncnn2c1CN1CCNC(=O)C1C` (stereo not drawn) [Example 105], half-maximal inhibition (IC50) required 8.7 nM.

`COc1cc(C)cc2cc(-c3c(CN4CCNC(=O)C4)c(CO)n4ncnc(N)c34)sc12` [Example 125, 4-{[4-Amino-7-(hydroxymethyl)-5-(7-methoxy-5-methyl-1-benzothiophen-2-yl)pyrrolo[2,1-f]-[1,2,4]triazin-6-yl]methyl}piperazin-2-one]: the IC50 is 5 nM.

Consider `CCOCc1c(-c2cc3cc(C)cc(OC)c3s2)c2c(N)ncnn2c1C(=O)N1CCC(O)C1` (stereo not drawn) [Example 118], for which the IC50 turned out to be 6.8 nM.

For the compound `CCOCc1c(-c2cc3cc(C)cc(OC)c3s2)c2c(N)ncnn2c1C(=O)N1CCCCO1` [Example 112], half-maximal inhibition (IC50) was put at 42.1 nM.

Regarding `CCOCc1c(-c2cc3cc(C)cc(OC)c3s2)c2c(N)ncnn2c1CN1CNC(=O)C1` [Example 104], 5.6 nM corresponded to half-maximal inhibition (IC50).

In turn, `CNCc1c(-c2cc3cc(C)cc(OC)c3s2)c2c(N)ncnn2c1CN1CCNCC1` [Example 36, 5-(7-Methoxy-5-methyl-1-benzothiophen-2-yl)-6-[(methylamino)methyl]-7-(piperazin-1-ylmethyl)pyrrolo[2,1-f][1,2,4]triazin-4-amine trihydrochloride] showed an IC50 of 3 nM.

As to `COc1cc(C)cc2cc(-c3c(-c4cnco4)c(CN4CCNCC4)n4ncnc(N)c34)sc12` [Example 61, 5-(7-Methoxy-5-methyl-1-benzothiophen-2-yl)-6-(1,3-oxazol-5-yl)-7-(piperazin-1-ylmethyl)pyrrolo[2,1-f][1,2,4]triazin-4-amine trihydrochloride], the midpoint of inhibition, the IC50, lay at 0.5 nM.

With `CCOCc1c(-c2cc3cc(C)cc(OC)c3s2)c2c(N)ncnn2c1CN1CCNC1=O` [Example 87, 1-{[4-Amino-6-(ethoxymethyl)-5-(7-methoxy-5-methyl-1-benzothiophen-2-yl)pyrrolo[2,1-f]-[1,2,4]triazin-7-yl]methyl}imidazolidin-2-one], the IC50 came out at 14.1 nM.

Compound `CCOCc1c(-c2cc3cc(C)cc(OC)c3s2)c2c(N)ncnn2c1CN1CCN(C2CC2)CC1` [Example 100] gave an IC50 of 54.5 nM.

In turn, `CCOCc1c(-c2cc3cc(C)cc(OC)c3s2)c2c(N)ncnn2c1CN[C@@H]1CCNC1=O` [Example 8, (3R)-3-({[4-Amino-6-(ethoxymethyl)-5-(7-methoxy-5-methyl-1-benzothiophen-2-yl)pyrrolo-[2,1-f][1,2,4]triazin-7-yl]methyl}amino)pyrrolidin-2-one] yielded an IC50 of 9.4 nM.

For the compound `CCOCc1c(-c2cc3cc(C)cc(OC)c3s2)c2c(N)ncnn2c1C(=O)N1CCC(C(N)=O)CC1` [Example 113], the IC50 worked out at 52.7 nM.

As for `CCOCc1c(-c2cc3cc(C)cc(OC)c3s2)c2c(N)ncnn2c1C(=O)NC` [Example 110], the IC50 is 17.5 nM.

On to `CCCCOCc1c(-c2cc3cc(C)cc(OC)c3s2)c2c(N)ncnn2c1CN1CCNCC1` [Example 23, 6-(Butoxymethyl)-5-(7-methoxy-5-methyl-1-benzothiophen-2-yl)-7-(piperazin-1-ylmethyl)pyrrolo-[2,1-f][1,2,4]triazin-4-amine formiate], for which the IC50 came to 17.9 nM.

Take `CCOCc1c(-c2cc3cc(C)cc(OC)c3s2)c2c(N)ncnn2c1C(=O)NC1CC1` [Example 115]: the IC50 was 24.9 nM.

Take `CCNC(=O)c1c(COCC)c(-c2cc3cc(C)cc(OC)c3s2)c2c(N)ncnn12` [Example 111]: the IC50 was 27 nM.

For `COCc1c(-c2cc3cc(OC)cc(OC)c3s2)c2c(N)ncnn2c1CN1CCNC(=O)C1` [Example 124, 4-{[4-Amino-5-(5,7-dimethoxy-1-benzothiophen-2-yl)-6-(methoxymethyl)pyrrolo[2,1-f][1,2,4]-triazin-7-yl]methyl}piperazin-2-one], the IC50 is 27.3 nM.

In turn, `CCOCc1c(-c2cc3cc(C)cc(OC)c3s2)c2c(N)ncnn2c1CN1CCOCC1` [Example 10, 6-(Ethoxymethyl)-5-(7-methoxy-5-methyl-1-benzothiophen-2-yl)-7-(morpholin-4-ylmethyl)pyrrolo[2,1-f][1,2,4]triazin-4-amine] had an IC50 of 12.7 nM.

`CCOCc1c(-c2cc3cc(C)cc(OC)c3s2)c2c(N)ncnn2c1C(=O)N1CC(F)(F)C1` [Example 122] came in with an IC50 of 18.9 nM.

Staying with this assay, now noted: 2 mM ATP; 15 min pre-incubation with enzyme; compounds of the invention; dihydrochloride.
As for `CCOCc1c(-c2cc3cc(C)cc(OC)c3s2)c2c(N)ncnn2c1CN[C@@H]1CCNC1=O` [Example 7, (3R)-3-({[4-Amino-6-(ethoxymethyl)-5-(7-methoxy-5-methyl-1-benzothiophen-2-yl)pyrrolo-[2,1-f][1,2,4]triazin-7-yl]methyl}amino)pyrrolidin-2-one dihydrochloride], half-maximal inhibition (IC50) was put at 4.2 nM.
